Data taken from PMC5481357, “Characterization of Three L-Asparaginases from Maritime Pine (Pinus pinaster Ait.)” (Frontiers in Plant Science, 2017).

Columns and labels:
Experiment in all cases: GOT/MDH-coupled aspartate release, NADH oxidation; Hanes-Woolf
Assay type in all cases: biochemical, Pinus pinaster
Details in all cases: 50 mM HEPES pH 7.8, 50 mM KCl
[1] = system: T1, PpASPG3
T1 construct: full ORF (918 nt, 305 residues) with C-terminal HA and poly-His tag, expressed in Nicotiana benthamiana, Ni-TED purified; partly processed into alpha and beta subunits

[2] = system: T2, PpASPG1
T2 construct: full ORF (1128 nt, 375 residues incl. 77-residue variable loop), expressed in Nicotiana benthamiana; conventional purification, untagged by the measured beta mass; autocleaved before Thr245 into alpha (26,431 Da, Met1 removed) and beta (13,325 Da); plant ASPG (alpha beta)2

[3] = system: T2, PpASPG1; remark: listed apart in the source
Excerpt: GOT/MDH-coupled aspartate release, NADH oxidation; Hanes-Woolf on […]1 | changes in the Km and Vmax values for L-Asn and β-L-Asp-L-Ala (Supplementary Table S3)

Structure (SMILES)	Km [1] [mM]	Km [2] [mM]	Km ([3]; deletion variant with C-terminal HA and poly-His tag, partly unprocessed precursor) [mM]	Km [3] [mM]
NC(=O)C[C@H](N)C(=O)O [L-Asn]	6.12 ± 0.96	4.58 ± 0.03	7.16 ± 0.88	–
C[C@H](NC(=O)C[C@H](N)C(=O)O)C(=O)O [β-L-Asp-L-Ala]	1.04 ± 0.21	56.7 ± 13.9	–	9.44 ± 0.82
